How the values were obtained:
Test in all cases: Cell viability panel, ATPlite 1Step
Type in all cases: cell-based
COLO 205 = details: Homo sapiens, Colon adenocarcinoma, 72 h exposure, read-out: Compound EC50
Procedure: (§1) Cell viability panel studies. Cells were diluted in the corresponding ATCC recommended medium and dispensed in a 384-well plate, depending on the cell line used, at a density of 200-6400 cells per well. For each used cell line, the optimal cell density was used. Compound was serially diluted and 8 concentration (0.04-32 μM) were added to the cells for 72 h exposure. At t=end, of ATPlite 1Step™ (PerkinElmer) were used to calculate cell viability. Cell lines marked with asterisk were seeded 24 h prior to treatment in 96-well plates at the density range of 5,000-40,000 cells/well, according to duplication rate, in RPMI 1640 medium containing 10% fetal bovine serum and 2 mM L-glutamine. Compounds were diluted from 10 mM DMSO stock and treatment was applied at the range of 0.04-1 μM. Following incubation at 37° C. for 48 hours with increasing concentrations of the compounds, viability was determined with CyQUANT® Direct Assay Kit (Invitrogen). Output intensities were normalized to values after treatment with DMSO alone, and EC50 values were calculated using the absorbance measurements [time zero, (Tz), growth control, (C), plus the test growth at the four drug concentration levels (Ti)] as follows: [(Ti−Tz)/(C−Tz)]×100 for concentrations for which Ti>/=Tz; [(Ti−Tz)/Tz]×100 for concentrations for which Ti−<Tz.

MOLT-4 = details: Homo sapiens, T acute lymphoblastic leukemia, 72 h exposure, read-out: Compound EC50
Procedure: as §1

A-549 = details: Homo sapiens, A549, Lung adenocarcinoma, 72 h exposure, read-out: Compound EC50
Procedure: as §1

CAL 27 = details: Homo sapiens, Tongue squamous cell carcinoma, 72 h exposure, read-out: Compound EC50
Procedure: as §1

JAR = details: Gestational choriocarcinoma, 72 h exposure, read-out: Compound EC50
Procedure: as §1

FaDu = details: Homo sapiens, Hypopharyngeal squamous cell carcinoma, 72 h exposure, read-out: Compound EC50
Procedure: as §1

RKO = details: Homo sapiens, Colon carcinoma, 72 h exposure, read-out: Compound EC50
Procedure: as §1

CCRF-CEM = details: Homo sapiens, T acute lymphoblastic leukemia, 72 h exposure, read-out: Compound EC50
Procedure: as §1

A-704 = details: Homo sapiens, A704, Renal cell carcinoma, 72 h exposure, read-out: Compound EC50
Procedure: as §1

A375 = details: Homo sapiens, A-375, Amelanotic melanoma, 72 h exposure, read-out: Compound EC50
Procedure: as §1

NCI-H661 = details: Homo sapiens, Large cell lung carcinoma, 72 h exposure, read-out: Compound EC50
Procedure: as §1

SW872 = details: Homo sapiens, Liposarcoma, 72 h exposure, read-out: Compound EC50
Procedure: as §1

RD = details: Homo sapiens, Embryonal rhabdomyosarcoma, 72 h exposure, read-out: Compound EC50
Procedure: as §1

A-204 = details: Homo sapiens, A204, Embryonal rhabdomyosarcoma, 72 h exposure, read-out: Compound EC50
Procedure: as §1

KATO III = details: Homo sapiens, Signet ring cell gastric adenocarcinoma, 72 h exposure, read-out: Compound EC50
Procedure: as §1

K-562 = details: Homo sapiens, K562, Chronic myelogenous leukemia, 72 h exposure, read-out: Compound EC50
Procedure: as §1

Hs 578T = details: Homo sapiens, Invasive ductal carcinoma, 72 h exposure, read-out: Compound EC50
Procedure: as §1

KG-1 = details: Homo sapiens, Acute myeloid leukemia, 72 h exposure, read-out: Compound EC50
Procedure: as §1

T24 = details: Homo sapiens, T-24, Bladder carcinoma, 72 h exposure, read-out: Compound EC50
Procedure: as §1

U-87 MG = details: Homo sapiens, Glioblastoma, 72 h exposure, read-out: Compound EC50
Procedure: as §1

Jurkat E6.1 = details: Homo sapiens, T acute lymphoblastic leukemia, 72 h exposure, read-out: Compound EC50
Procedure: as §1

LS 174T = details: Homo sapiens, LS174T, Colon adenocarcinoma, 72 h exposure, read-out: Compound EC50
Procedure: as §1

DLD-1 = details: Homo sapiens, Colon adenocarcinoma, 72 h exposure, read-out: Compound EC50
Procedure: as §1

MeWo = details: Homo sapiens, Melanoma, 72 h exposure, read-out: Compound EC50
Procedure: as §1

DoTc2 4510 = details: Homo sapiens, Cervical carcinoma, 72 h exposure, read-out: Compound EC50
Procedure: as §1

A-427 = details: Homo sapiens, Lung adenocarcinoma, 72 h exposure, read-out: Compound EC50
Procedure: as §1

OVCAR-3 = details: Homo sapiens, High grade ovarian serous adenocarcinoma, 72 h exposure, read-out: Compound EC50
Procedure: as §1

PC-3 = details: Homo sapiens, Prostate carcinoma, 72 h exposure, read-out: Compound EC50
Procedure: as §1

THP-1 = details: Homo sapiens, Acute monocytic leukemia, 72 h exposure, read-out: Compound EC50
Procedure: as §1

## CN(C)CCCS(=O)(=O)N1C/C(=C\c2ccc(C#N)cc2)C(=O)/C(=C/c2ccc(C#N)cc2)C1 [Compound AA]
COLO 205
  EC50: < 300 nM
MOLT-4
  EC50: < 300 nM
A-549
  EC50: ≥ 1000 nM
CAL 27
  EC50: < 300 nM
JAR
  EC50: < 300 nM
FaDu
  EC50: < 300 nM
RKO
  EC50: < 300 nM
CCRF-CEM
  EC50: < 300 nM
A-704
  EC50: 300 to 1000 nM
A375
  EC50: < 300 nM
NCI-H661
  EC50: 300 to 1000 nM
SW872
  EC50: < 300 nM
RD
  EC50: < 300 nM
A-204
  EC50: < 300 nM
KATO III
  EC50: 300 to 1000 nM
K-562
  EC50: < 300 nM
Hs 578T
  EC50: < 300 nM
KG-1
  EC50: < 300 nM
T24
  EC50: < 300 nM
U-87 MG
  EC50: < 300 nM
Jurkat E6.1
  EC50: < 300 nM
LS 174T
  EC50: < 300 nM
DLD-1
  EC50: < 300 nM
MeWo
  EC50: 300 to 1000 nM
DoTc2 4510
  EC50: < 300 nM
A-427
  EC50: < 300 nM
OVCAR-3
  EC50: 300 to 1000 nM
PC-3
  EC50: 300 to 1000 nM
THP-1
  EC50: 300 to 1000 nM
